# Measured values published in US9096591B2, “Tetracyclic compounds” (Medivation Technologies, Inc., priority 2007, dated 2015).
# Tests used:
# [1] = biological target: T1, human recombinant adrenergic α1D receptor (Homo sapiens, UniProt P25100); assay: Adrenergic α1D radioligand binding ([3H]Prozosin); set-up: Inhibition of ligand binding, Adren. alpha1D: concentration or dose not given beside the values; details: for Inhibition of ligand binding, Adren. alpha1D: percent inhibition of specific binding; for inhibition at 1 µM: compounds screened at 1 μM, read-out: Inhibition of ligand binding, Adren. alpha1D (percent inhibition of specific binding)
# T1 construct: expressed in transfected cells; host or cells: HEK-293 cells
# T1 sequence (P25100 1-572): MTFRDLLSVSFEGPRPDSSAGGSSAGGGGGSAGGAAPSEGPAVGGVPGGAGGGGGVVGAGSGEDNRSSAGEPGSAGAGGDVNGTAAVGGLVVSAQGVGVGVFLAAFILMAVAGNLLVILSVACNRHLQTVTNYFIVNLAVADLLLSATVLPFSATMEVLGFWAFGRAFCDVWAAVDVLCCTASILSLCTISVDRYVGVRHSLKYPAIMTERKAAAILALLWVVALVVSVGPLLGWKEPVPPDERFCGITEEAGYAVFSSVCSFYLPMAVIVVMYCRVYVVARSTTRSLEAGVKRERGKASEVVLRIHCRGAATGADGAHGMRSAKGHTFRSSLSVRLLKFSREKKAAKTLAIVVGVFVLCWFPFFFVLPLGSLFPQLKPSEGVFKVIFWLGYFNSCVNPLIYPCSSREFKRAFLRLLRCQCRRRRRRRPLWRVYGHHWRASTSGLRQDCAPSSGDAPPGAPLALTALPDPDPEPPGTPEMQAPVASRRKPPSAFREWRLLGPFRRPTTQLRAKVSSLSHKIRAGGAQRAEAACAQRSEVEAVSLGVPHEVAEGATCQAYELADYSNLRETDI
# Description: Compounds of invention were incubated with 0.6 nM [^3H]Prozosin for 60 minutes at 25° C. Non-specific binding was estimated in the presence of 10 μM phentolamine. Receptor proteins were filtered and washed, the filters were then counted to determine [^3H]Prozosin specifically bound. […] Biochemical assay results are presented as the percent inhibition of specific binding in Table 6.
# [2] = biological target: T2, human recombinant dopamine D2L receptor (Homo sapiens, UniProt P14416); assay: Dopamine D2L radioligand binding ([3H]Spiperone); details: for Inhibition of ligand binding, Dop. D2L: percent inhibition of specific binding; for inhibition at 1 µM: compounds screened at 1 μM, read-out: Inhibition of ligand binding, Dop. D2L (percent inhibition of specific binding)
# T2 construct: expressed in transfected cells; host or cells: CHO cells
# T2 sequence (P14416 whole entry): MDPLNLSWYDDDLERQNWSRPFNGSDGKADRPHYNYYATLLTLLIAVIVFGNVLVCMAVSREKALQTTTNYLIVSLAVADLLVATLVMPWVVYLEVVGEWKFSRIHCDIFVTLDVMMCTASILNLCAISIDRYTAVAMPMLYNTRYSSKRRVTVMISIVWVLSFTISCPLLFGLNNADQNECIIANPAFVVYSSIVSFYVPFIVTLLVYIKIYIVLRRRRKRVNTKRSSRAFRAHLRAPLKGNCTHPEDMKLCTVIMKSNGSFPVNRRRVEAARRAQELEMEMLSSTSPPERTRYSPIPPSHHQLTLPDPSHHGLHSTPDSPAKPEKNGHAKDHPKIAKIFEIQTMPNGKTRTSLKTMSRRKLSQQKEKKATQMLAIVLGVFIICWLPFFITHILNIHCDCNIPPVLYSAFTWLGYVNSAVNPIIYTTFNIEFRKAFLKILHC
# Description: Non-specific binding was estimated in the presence of 10 μM Haloperidol. Receptor proteins were filtered and washed, the filters were then counted to determine [^3H]Spiperone specifically bound. […] Biochemical assay results are presented as the percent inhibition of specific binding in Table 6.
# [3] = biological target: T3, human recombinant serotonin (5-Hydroxytryptamine) 5-HT2A receptor (Homo sapiens, UniProt P28223); assay: Serotonin 5-HT2A radioligand binding ([3H]Ketanserin); details: for Inhibition of ligand binding, Ser. 5-HT2A: percent inhibition of specific binding; for inhibition at 1 µM: read-out: Inhibition of ligand binding, Ser. 5-HT2A (percent inhibition of specific binding)
# T3 construct: expressed in transfected cells; host or cells: CHO-K1 cells
# T3 sequence (P28223 whole entry): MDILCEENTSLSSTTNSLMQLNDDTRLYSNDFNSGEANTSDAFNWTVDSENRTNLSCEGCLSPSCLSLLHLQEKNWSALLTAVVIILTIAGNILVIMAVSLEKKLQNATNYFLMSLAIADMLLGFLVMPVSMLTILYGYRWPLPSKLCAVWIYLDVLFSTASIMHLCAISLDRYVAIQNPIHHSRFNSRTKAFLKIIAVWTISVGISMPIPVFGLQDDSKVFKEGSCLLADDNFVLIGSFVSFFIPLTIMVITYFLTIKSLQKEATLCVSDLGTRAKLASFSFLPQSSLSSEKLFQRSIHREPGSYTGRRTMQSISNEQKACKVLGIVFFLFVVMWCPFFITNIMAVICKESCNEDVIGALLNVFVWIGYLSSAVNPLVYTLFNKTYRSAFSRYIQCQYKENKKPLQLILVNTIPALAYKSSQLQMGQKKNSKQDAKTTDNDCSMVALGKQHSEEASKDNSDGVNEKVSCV
# Description: (§1) Compounds of the invention were incubated with 0.5 nM [^3H]Ketanserin for 60 minutes at 25° C. Non-specific binding was estimated in the presence of 1 μM Mianserin. Receptor proteins were filtered and washed, the filters were then counted to determine [^3H]Ketanserin specifically bound. […] Biochemical assay results are presented as the percent inhibition of specific binding in Table 6.
# [4] = biological target: T4, human recombinant serotonin (5-Hydroxytryptamine) 5-HT2C receptor (Homo sapiens, UniProt P28335); assay: Serotonin 5-HT2C radioligand binding ([3H]Mesulergine); set-up: Inhibition of ligand binding, Ser. 5-HT2C: concentration or dose not given beside the values; details: for Inhibition of ligand binding, Ser. 5-HT2C: percent inhibition of specific binding; for inhibition at 1 µM: compounds screened at 1 μM, read-out: Inhibition of ligand binding, Ser. 5-HT2C (percent inhibition of specific binding)
# T4 construct: expressed in transfected cells; host or cells: CHO-K1 cells
# T4 sequence (P28335 33-458): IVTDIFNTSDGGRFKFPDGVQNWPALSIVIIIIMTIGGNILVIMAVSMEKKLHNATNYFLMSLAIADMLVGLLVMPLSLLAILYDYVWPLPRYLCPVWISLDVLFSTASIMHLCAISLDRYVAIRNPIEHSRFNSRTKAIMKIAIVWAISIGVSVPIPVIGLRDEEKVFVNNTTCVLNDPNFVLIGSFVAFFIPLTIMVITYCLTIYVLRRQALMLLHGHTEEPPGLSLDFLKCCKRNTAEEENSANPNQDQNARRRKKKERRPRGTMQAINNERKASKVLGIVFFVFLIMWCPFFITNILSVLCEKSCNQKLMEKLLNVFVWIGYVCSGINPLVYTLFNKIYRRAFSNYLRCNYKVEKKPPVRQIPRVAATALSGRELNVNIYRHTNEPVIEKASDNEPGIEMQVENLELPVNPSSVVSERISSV
# Description: as §1, with “1” for “0.5”, “[^3H]Mesulergine” for “[^3H]Ketanserin”
Structure (SMILES),"Inhibition of ligand binding, Adren. alpha1D [1] [%]","Inhibition of ligand binding, Dop. D2L [2] [%]","Inhibition of ligand binding, Ser. 5-HT2A [3] [%]","Inhibition of ligand binding, Ser. 5-HT2C [4] [%]",inhibition at 1 µM [1] [%],inhibition at 1 µM [2] [%],inhibition at 1 µM [3] [%],inhibition at 1 µM [4] [%]
"Cc1ccc2c(c1)c1c(n2CCc2cnc(C)nc2)CCN(C)C1 [Compound 323, 2,3,4,5-tetrahydro-2,8-dimethyl-5-(2-(2-methylpyrimidin-5-yl)ethyl)-1H-pyrido[4,3-b]indole]",49,8,16,20,–,–,–,–
"CN1CCc2c(c3cc(Cl)ccc3n2CCCc2ccc(C(F)(F)F)nc2)C1 [Compound 324, 8-chloro-5-(3-(6-(trifluoromethyl)pyridin-3-yl)propyl)-2,3,4,5-tetrahydro-2-methyl-1H-pyrido[4,3-b]indole]",53,28,86,57,–,–,–,–
"CC1CCN(C(=O)CCn2c3c(c4cc(Cl)ccc42)CN(C)CC3)CC1 [Compound 325, 3-(8-chloro-1,2,3,4-tetrahydro-2-methylpyrido[4,3-b]indol-5-yl)-1-(4-methylpiperidin-1-yl)propan-1-one]",36,−3,53,50,–,–,–,–
"CN1CCc2c(c3cc(Cl)ccc3n2CCC(=O)N2CCCCC2)C1 [Compound 326, 3-(8-chloro-1,2,3,4-tetrahydro-2-methylpyrido[4,3-b]indol-5-yl)-1-(piperidin-1-yl)propan-1-one]",40,−5,27,31,–,–,–,–
"CN1CCc2c(c3cc(Cl)ccc3n2CCC(=O)N2CCOCC2)C1 [Compound 328, 3-(8-chloro-1,2,3,4-tetrahydro-2-methylpyrido[4,3-b]indol-5-yl)-1-morpholinopropan-1-one]",23,6,46,29,–,–,–,–
"Cc1ccc2c(c1)c1c(n2CC(=O)N2CCOCC2)CCN(C)C1 [Compound 330, 2-(1,2,3,4-tetrahydro-2,8-dimethylpyrido[4,3-b]indol-5-yl)-1-morpholinoethanone]",8,−8,14,17,–,–,–,–
"Cc1ccc2c(c1)c1c(n2CCCc2ccc(C(F)(F)F)nc2)CCN(C)C1 [Compound 331, 5-(3-(6-(trifluoromethyl)pyridin-3-yl)propyl)-2,3,4,5-tetrahydro-2,8-dimethyl-1H-pyrido[4,3-b]indole]",63,20,93,72,–,–,–,–
"CCOc1ccc(CCn2c3c(c4cc(C)ccc42)CN(C)CC3)cc1 [Compound 334, 5-[2-(4-Ethoxy-phenyl)-ethyl]-2,8-dimethyl-2,3,4,5-tetrahydro-1H-pyrido[4,3-b]indole]",110,76,101,97,–,–,–,–
"Cc1ccc2c(c1)c1c(n2CCc2ccc(OC(C)(C)C)cc2)CCN(C)C1 [Compound 335, 5-(4-tert-butoxyphenethyl)-2,3,4,5-tetrahydro-2,8-dimethyl-1H-pyrido[4,3-b]indole]",91,44,97,72,–,–,–,–
"COc1ccc(CCn2c3c(c4cc(Cl)ccc42)CN(C)CC3)cc1 [Compound 336, 8-Chloro-5-[2-(4-methoxy-phenyl)-ethyl]-2-methyl-2,3,4,5-tetrahydro-1H pyrido[4,3-b]indole]",98,82,96,99,–,–,–,–
"COc1ccc(CCn2c3c(c4cc(Cl)ccc42)CN(C)CC3)cc1F [Compound 337, 5-(3-fluoro-4-methoxyphenethyl)-8-chloro-2,3,4,5-tetrahydro-2-methyl-1H-pyrido[4,3-b]indole]",97,81,101,94,–,–,–,–
"CN1CCc2c(c3ccncc3n2CCc2ccccn2)C1 [Compound 481, 7-aza-2-methyl-5-(2-(pyridin-2-yl)ethyl)-2,3,4,5-tetrahydro-1H-pyrido[4,3-b]indole]",–,–,–,–,3,16,27,20
"CN1CCc2c(c3ncccc3n2CCc2ccncc2)C1 [Compound 482, 9-aza-2-methyl-5-(2-(pyridin-4-yl)ethyl)-2,3,4,5-tetrahydro-1H-pyrido[4,3-b]indole]",–,–,–,–,2,7,-7,17
"CN1CCc2c(c3ccncc3n2CCc2ccncc2)C1 [Compound 483, 7-aza-2-methyl-5-(2-(pyridin-4-yl)ethyl)-2,3,4,5-tetrahydro-1H-pyrido[4,3-b]indole]",–,–,–,–,3,0,2,9
"CN1CCc2c(c3ncccc3n2CCc2ccccn2)C1 [Compound 484, 9-aza-2-methyl-5-(2-(pyridin-2-yl)ethyl)-2,3,4,5-tetrahydro-1H-pyrido[4,3-b]indole]",–,–,–,–,10,15,39,31
"Cc1ccc(CCn2c3c(c4cc(I)ccc42)CN(C)CC3)cn1 [Compound 485, 2,3,4,5-tetrahydro-8-iodo-2-methyl-5-(2-(6-methylpyridin-3-yl)ethyl)-1H-pyrido[4,3-b]indole]",–,–,–,–,69,43,69,91
"CN1CCc2c(c3cc(I)ccc3n2CC(=O)N2CCCCC2)C1 [Compound 486, 2-(1,2,3,4-tetrahydro-8-iodo-2-methylpyrido[4,3-b]indol-5-yl)-1-(piperidin-1-yl)ethanone]",–,–,–,–,22,0,19,31
"Cc1ccc(CCn2c3c(c4cc(Br)ccc42)CN(C)CC3)cn1 [Compound 487, 8-bromo-2-methyl-5-(2-(6-methylpyridin-3-yl)ethyl)-2,3,4,5-tetrahydro-1H-pyrido[4,3-b]indole]",–,–,–,–,90,42,87,84
"CN1CCc2c(c3cc(Br)ccc3n2CC(=O)N2CCCCC2)C1 [Compound 516, 2-(8-bromo-2-methyl-3,4-dihydro-1H-pyrido[4,3-b]indol-5(2H)-yl)-1-(piperidin-1-yl)ethanone]",–,–,–,–,26,-4,6,58
